In patent US4258184A, “Cephalosporin derivatives” (Meiji Seika Kaisha Ltd., priority 1976, dated 1981):
Values after ≈ are worked out from the molar mass of the structure shown. Like-named read-outs stand apart in the source and are kept apart here.

Legend:
Proteus species C73-34 = assay: Minimum prohibiting concentration by agar plate dilution method; type: cell-based; conditions: read-out: Minimum prohibiting concentration
Excerpt: (§1) Minimum prohibiting concentration (γ/ml)
(§2) by means of agar plate dilution method

[1] = tested on: Bacillus subtilis ATCC 6633; assay: as above; type: cell-based
Excerpt: as §1, §2

[2] = tested on: Staphylococcus aureus No. 26; assay: as above; type: cell-based
Excerpt: as §1, §2

[3] = tested on: Pseudomonas species C73-83; assay: as above; type: cell-based
Excerpt: as §1, §2

Escherichia coli C73-1 = assay: as above; type: cell-based
Excerpt: as §1, §2

[4] = tested on: Escherichia coli K-12 IAM 1264; assay: as above; type: cell-based; conditions: IAM1264, Table 1
Excerpt: as §1, §2

[5] = tested on: Staphylococcus aureus 209p JC-1; assay: as above; type: cell-based; conditions: read-out: Minimum prohibiting concentration
Excerpt: as §1, §2

Serratia species No. 2 = assay: as above; type: cell-based
Excerpt: as §1, §2

[6] = tested on: Pseudomonas species C73-2; assay: as above; type: cell-based; conditions: C732, Table 1
Excerpt: as §1, §2

[7] = tested on: Vibrio parahaemolyticus K-7; assay: as above; type: cell-based
Excerpt: as §1, §2

[8] = tested on: Enterobacter species C73-17; assay: as above; type: cell-based
Excerpt: as §1, §2

Serratia species MS-2 = assay: as above; type: cell-based
Excerpt: as §1, §2

Proteus species C73-25 = assay: as above; type: cell-based; conditions: read-out: Minimum prohibiting concentration
Excerpt: as §1, §2

[9] = tested on: Escherichia coli NIHJ JC-2; assay: as above; type: cell-based
Excerpt: as §1, §2

[10] = tested on: Pseudomonas aeruginosa IAM 1007; assay: as above; type: cell-based
Excerpt: as §1, §2

Salmonella typhi O-901-W = assay: Minimum prohibiting/inhibition concentration by agar plate dilution method; type: cell-based; conditions: Salmonella enterica
Excerpt: as §1, §2
(§3) Minimum inhibition concentration (γ/ml) by means
(§4) of agar plate dilution method

Proteus morganii Kono = assay: as above; type: cell-based; conditions: Morganella morganii
Excerpt: as §1, §2, §3, §4

[11] = tested on: Salmonella enteriditis No. 11; assay: as above; type: cell-based
Excerpt: as §1, §2, §3, §4

[12] = tested on: Staphylococcus aureus Smith S-424; assay: as above; type: cell-based
Excerpt: as §1, §2, §3, §4

[13] = tested on: Vibrio parahaemolyticus K-5; assay: as above; type: cell-based
Excerpt: as §1, §2, §3, §4

[14] = tested on: Staphylococcus aureus Smith No. 26; assay: Minimum inhibition concentration by agar plate dilution method; type: cell-based; conditions: read-out: Minimum inhibition concentration
Excerpt: as §3, §4

Klebsiella pneumoniae = assay: as above; type: cell-based; conditions: Table 2
Excerpt: as §3, §4

[15] = Toxicity, peritoneal administration to mice; type: in vivo; conditions: 6 mice, administered peritoneally, dosage amount of 200 mg/l kg
Excerpt: The toxicity of the compounds according to this invention is excellently low. […] As is clear from above, the compounds according to this invention are not only low in toxicity and excellent in anti-biotic activity but also have a prolonged action after administration. Therefore, they show excellent infection cure effect and infection-defense effect in before-or after-administration and in less dosage in comparison with known cephalosporin derivatives, for example, cephalothin, cefazolin or cephaloridine.

[16] = Table 1, agar plate dilution method, Proteus species C73-34
[17] = ATCC6633, Table 1, agar plate dilution method, Bacillus subtilis ATCC 6633, read-out: Minimum prohibiting concentration
[18] = Table 1, agar plate dilution method, Staphylococcus aureus No. 26, read-out: Minimum prohibiting concentration
[19] = C7383, Table 1, agar plate dilution method, Pseudomonas species C73-83, read-out: Minimum prohibiting concentration
[20] = C731, Table 1, agar plate dilution method, Escherichia coli C73-1, read-out: Minimum prohibiting concentration
[21] = Table 1, agar plate dilution method, Staphylococcus aureus 209p JC-1
[22] = Table 1, agar plate dilution method, Serratia species No. 2, read-out: Minimum prohibiting concentration
[23] = K7, Table 1, agar plate dilution method, Vibrio parahaemolyticus K-7, read-out: Minimum prohibiting concentration
[24] = C7317, Table 1, agar plate dilution method, Enterobacter species C73-17, read-out: Minimum prohibiting concentration
[25] = Serratia, MS2, read-out: Minimum prohibiting concentration
[26] = Table 1, agar plate dilution method, Proteus species C73-25
[27] = Escherichia coli, NIHJJC2, read-out: Minimum prohibiting concentration
[28] = IAM1007, Table 1, agar plate dilution method, Pseudomonas aeruginosa IAM 1007, read-out: Minimum prohibiting concentration
[29] = read-out: Minimum inhibition concentration
[30] = read-out: Minimum prohibiting concentration
[31] = Table 1, agar plate dilution method, Salmonella enteriditis No. 11, read-out: Minimum prohibiting concentration
[32] = Table 2, agar plate dilution method, Salmonella enteritidis N0. 11, read-out: Minimum inhibition concentration
[33] = SMITHS424, Table 1, agar plate dilution method, Staphylococcus aureus Smith S-424, read-out: Minimum prohibiting concentration
[34] = K5, Table 1, agar plate dilution method, Vibrio parahaemolyticus K-5, read-out: Minimum prohibiting concentration
[35] = K5, Table 2, agar plate dilution method, Vibrio parahaemolyticus K-5, read-out: Minimum inhibition concentration
[36] = Table 2, agar plate dilution method, Staphylococcus aureus Smith No. 26
[37] = Staphylococcus aureus, NO.26, read-out: Minimum prohibiting concentration
[38] = MS2, Table 1, agar plate dilution method, Serratia species MS-2, read-out: Minimum prohibiting concentration
[39] = NIHJJC2, Table 1, agar plate dilution method, Escherichia coli NIHJ JC-2, read-out: Minimum prohibiting concentration
[40] = Table 1, agar plate dilution method, Proteus morganii Kono, read-out: Minimum prohibiting concentration
[41] = Salmonella, NO.11, read-out: Minimum prohibiting concentration
[42] = Table 2, agar plate dilution method, Proteus morganii Kono, read-out: Minimum inhibition concentration

Compound	MIC (Proteus species C73-34; [16]) [µg/mL]	MIC [1, 17] [µg/mL]	MIC [2, 18] [µg/mL]	MIC [3, 19] [µg/mL]	MIC (Escherichia coli C73-1; [20]) [µg/mL]	MIC [4] [µg/mL]	MIC [5, 21] [µg/mL]	MIC (Serratia species No. 2; [22]) [µg/mL]	MIC [6] [µg/mL]	MIC [7, 23] [µg/mL]	MIC [8, 24] [µg/mL]	MIC (Serratia species MS-2; [25]) [µg/mL]	MIC (Proteus species C73-25; [26]) [µg/mL]	MIC [10, 28] [µg/mL]	MIC (Salmonella typhi O-901-W; [29]) [µg/mL]	MIC (Salmonella typhi O-901-W; [30]) [µg/mL]	MIC [12, 33] [µg/mL]	MIC [13, 34] [µg/mL]	MIC [13, 35] [µg/mL]	MIC (Klebsiella pneumoniae) [µg/mL]	further results
CC1(C)S[C@@H]2[C@H](NC(=O)C(C(=O)O)c3ccccc3)C(=O)N2[C@H]1C(=O)O (some centres unmarked) [Carbenicillin disodium, reference compound]	50	0.39	25	> 100	25	12.5	0.39	50	> 100	50	> 100	12.5	50	> 100	12.5	12.5	0.39	> 100	> 100	25	MIC [9, 27]: 12.5 µg/mL; MIC (Proteus morganii Kono; [29]): 12.5 µg/mL; MIC (Proteus morganii Kono; [30]): 12.5 µg/mL; MIC [11, 31]: 50 µg/mL; MIC [11, 32]: 50 µg/mL; MIC [14, 36]: 25 µg/mL
Cc1nnc(SCC2=C(C(=O)O)N3C(=O)[C@@H](NC(=O)Cn4cnnn4)[C@H]3SC2)s1 [Cefazolin Na, reference compound]	12.5 (≈ 27.5 µM)	0.2 (≈ 0.44 µM)		> 100	6.25 (≈ 13.8 µM)	3.13 (≈ 6.89 µM)	0.1 (≈ 0.22 µM)	> 100	> 100	12.5 (≈ 27.5 µM)	50 (≈ 110 µM)			> 100		3.13 (≈ 6.89 µM)	0.78 (≈ 1.72 µM)	6.25 (≈ 13.8 µM)			MIC [2, 37]: 3.13 µg/mL (≈ 6.89 µM); MIC (Serratia species MS-2; [38]): > 100 µg/mL; MIC (Proteus species C73-25): 3.13 µg/mL (≈ 6.89 µM); MIC [9, 39]: 6.25 µg/mL (≈ 13.8 µM); MIC (Proteus morganii Kono; [40]): > 100 µg/mL; MIC [11, 41]: 3.13 µg/mL (≈ 6.89 µM)
Cc1ccc(-c2ccc(C(=O)N[C@@H](C(=O)NC3C(=O)N4C(C(=O)O)=C(CSc5nnc(C(N)=O)s5)CS[C@H]34)c3ccccc3)c(O)n2)cc1 (stereo partly drawn) [Example 2, 7-{D(-)-α-[2-hydroxy-6-(p-tolyl)pyridine-3-carbonylamino]phenylacetamido}-3-(5-carbamoyl-1,3,4-thiadiazol-2-ylthiomethyl)-3-cephem-4-carboxylic acid]	12.5 (≈ 17.4 µM)	1.56 (≈ 2.17 µM)	6.25 (≈ 8.71 µM)	100 (≈ 139 µM)	25 (≈ 34.8 µM)	6.25 (≈ 8.71 µM)	0.78 (≈ 1.09 µM)	100 (≈ 139 µM)	100 (≈ 139 µM)	12.5 (≈ 17.4 µM)	50 (≈ 69.7 µM)		25 (≈ 34.8 µM)	100 (≈ 139 µM)		3.13 (≈ 4.36 µM)	0.78 (≈ 1.09 µM)	25 (≈ 34.8 µM)			MIC (Serratia species MS-2; [38]): 50 µg/mL (≈ 69.7 µM); MIC [9, 39]: 25 µg/mL (≈ 34.8 µM); MIC (Proteus morganii Kono; [40]): 100 µg/mL (≈ 139 µM); MIC [11, 31]: 0.39 µg/mL (≈ 0.543 µM); mortality [15]: any mouse did not die
Cc1ccc(-c2ccc(C(=O)N[C@@H](C(=O)NC3C(=O)N4C(C(=O)[O-])=C(CSc5nnc(C(N)=O)s5)CS[C@H]34)c3ccc(O)cc3)c(O)n2)cc1.[Na+] (stereo partly drawn) [Example 8, sodium 7-{D(-)-α-[2-hydroxy-6-(p-tolyl)pyridine-3-carbonylamino]-p-hydroxyphenylacetamido}-3-(5-carbamoyl-1,3,4-thiadiazol-2-ylthiomethyl)-3-cephem-4-carboxylate]						1.56			50			50				1.56					MIC (Proteus species C73-34): 12.5 µg/mL; MIC ([1]; Bacillus subtilis, ATCC6633, read-out: Minimum prohibiting concentration): 0.78 µg/mL; MIC [2, 37]: 3.13 µg/mL; MIC ([3]; Pseudomonas, C7383, read-out: Minimum prohibiting concentration): 100 µg/mL; MIC (Escherichia coli C73-1; Escherichia coli, C731, read-out: Minimum prohibiting concentration): 6.25 µg/mL; MIC ([5]; Staphylococcus aureus, 209P): 0.2 µg/mL; MIC (Serratia species No. 2; Serratia, NO.2, read-out: Minimum prohibiting concentration): 50 µg/mL; MIC ([7]; Vibrio parahaemolyticus, K7, read-out: Minimum prohibiting concentration): 3.13 µg/mL; MIC ([8]; Enterobacter, C7317, read-out: Minimum prohibiting concentration): 12.5 µg/mL; MIC (Proteus species C73-25): 50 µg/mL; MIC [9, 27]: 12.5 µg/mL; MIC ([10]; Pseudomonas aeruginosa, IAM1007, read-out: Minimum prohibiting concentration): 100 µg/mL; MIC (Proteus morganii Kono; [30]): 25 µg/mL; MIC [11, 41]: 0.78 µg/mL; MIC ([12]; Staphylococcus aureus, SMITHS424, read-out: Minimum prohibiting concentration): 0.39 µg/mL; MIC ([13]; Vibrio parahaemolyticus, K5, read-out: Minimum prohibiting concentration): 3.13 µg/mL
Cc1ccc(-c2ccc(C(=O)N[C@@H](C(=O)NC3C(=O)N4C(C(=O)O)=C(CSc5nnnn5C)CS[C@H]34)c3ccc(O)cc3)c(O)n2)cc1 (stereo partly drawn) [Example 56, 7-{D-(-)-α-[2-hydroxy-6-(p-tolyl)pyridine-3-carbonylamino]-p-hydroxyphenylacetamido}-3-(1-methyl-1,2,3,4-tetrazole-5-ylthiomethyl)-3-cephem-4-carboxylic acid]															1.56 (≈ 2.26 µM)				25 (≈ 36.3 µM)	25 (≈ 36.3 µM)	MIC (Proteus morganii Kono; [42]): 12.5 µg/mL (≈ 18.1 µM); MIC [11, 29]: 1.56 µg/mL (≈ 2.26 µM); MIC ([12]; Staphylococcus aureus, SMITHS424, read-out: Minimum inhibition concentration): 1.56 µg/mL (≈ 2.26 µM); MIC ([14]; Staphylococcus aureus): 6.25 µg/mL (≈ 9.07 µM)
Cc1ccc(-c2ccc(C(=O)N[C@@H](C(=O)NC3C(=O)N4C(C(=O)O)=C(CSc5nnnn5C)CS[C@H]34)c3ccccc3)c(O)n2)cc1 (stereo partly drawn) [Example 57, 7-{D-(-)-α-[2-hydroxy-6-(p-tolyl)pyridine-3-carbonylamino]-phenylacetamido}-3-(1-methyl-1,2,3,4-tetrazole-5-ylthiomethyl)-3-cephem-4-carboxylicacid]															6.25 (≈ 9.29 µM)				25 (≈ 37.2 µM)	50 (≈ 74.3 µM)	MIC (Proteus morganii Kono; [42]): 100 µg/mL (≈ 149 µM); MIC [11, 32]: 3.13 µg/mL (≈ 4.65 µM); MIC ([12]; SMITHS424, Table 2, agar plate dilution method, Staphylococcus aureus Smith S-424, read-out: Minimum inhibition concentration): 12.5 µg/mL (≈ 18.6 µM); MIC [14, 36]: 50 µg/mL (≈ 74.3 µM)
